Experimental data from patent US11220486B2 (La Jolla Institute of Allergy & Immunology, priority 2014, dated 2022).
Where two headings read alike, the source gives them in different places.

What was measured:
[1] = molecular target: LMPTP-A (Low Molecular Weight Protein Tyrosine Phosphatase-A) enzyme (Homo sapiens (Human), UniProt P24666); test: LMPTP primary screening / LMPTP (OMFP) enzyme inhibition assay, fluorescence intensity; assay type: biochemical
Procedure: This assay attempts to identify inhibitors of the LMPTP-A (Low Molecular Weight Protein Tyrosine Phosphatase-A) enzyme. It is run in 1536-well format and is measured via fluorescence intensity.
A listing of materials is provided: • Item, source, catalog no. • LMPTP-A Enzyme Stock Solution (4.22 mg/ml or 206.8 μM), SBMRI Protein Facility, • N/A • OMFP, Sigma, M2629-100 MG • Bis-Tris pH 6.0, Fisher Sci, BP301-100 • Triton-X 100, Sigma, T9284 • DTT, Sigma, D9779 • Mol. Grade Water, Mediatech, Inc., 46-000-CM • 1536-well black High base opaque bottom plate, Nexus Biosystems, 00019120
Assay Procedure • 1. Prepare Reagents as described in section F. Recipe. • 2. Using LabCyte Echo, transfer 60 nL from 2 mM test compound source plate into assay plate Col. 5-48 (final concentration of test compounds is 20 μM). 60 nL of DMSO should be transferred to col. 1-4 for positive and negative control wells. • 3. Spin plates at 1000 rpm for 1 minute in centrifuge. • 4. […] Using the Bioraptr, add 3 μL/well of enzyme solution to col. 3-48. • 6. Using the Bioraptr, add 3 μL/well of substrate solution to col. 1-48. • 7. Spin plates at 1000 rpm for 1 minute in centrifuge. • 8. Incubate plates in the dark at room temperature for 50 minutes. • 9. Read plates on PerkinElmer Viewlux using a FI protocol.

[2] = Liver function: serum alanine transaminase or aspartate transaminase of treated mice; assay type: in vivo; conditions: mice treated 30 mg/kg daily IP
Procedure: Serum alanine transaminase or aspartate transaminase levels from mice treated with Compound D1 (ML400) or vehicle (mice shown in FIG. 10) were assessed using EnzyChrom Assay Kits from BioAssay Systems.

[3] = Kidney function: serum creatinine of treated mice; assay type: in vivo; conditions: mice treated 30 mg/kg daily IP
Procedure: Serum creatinine levels from mice treated with Compound D1 (ML400) or vehicle (mice shown in FIG. 9) were assessed using the QuantiChrom Creatinine Assay Kit from BioAssay Systems.

[4] = tested on: obese mice (glucose tolerance); test: IPGTT in high-fat-diet obese mice; assay type: in vivo, Male C57BL/6 mice; conditions: 30 mg/kg daily IP, 4 weeks, HFD obese mice, 2 g glucose/kg
Procedure: Male C57BL/6 mice were maintained on HFD containing 60 kcal % fat for 3 months, followed by daily IP administration of 30 mg/kg Compound D1 or vehicle. After 4 weeks, IPGTT were performed using 2 g glucose/kg body weight. Mean±SEM is shown. *, p<0.05, Two-way ANOVA.

[5] = Aqueous solubility in buffer pH 5.0-7.4 and PBS; assay type: physicochemical
3T3-L1 pre-adipocytes = test: Insulin-based 3T3-L1 adipogenesis assay (AdipoRed); assay type: cell-based, mouse; conditions: 10 μM
Procedure: The probe Compound D1 was also profiled in an insulin-based mouse 3T3-L1 adipogenesis assay. In this assay, 3T3-L1 pre-adipocytes are grown to 2-days post-confluence in DMEM with 10% bovine calf serum, and then induced to differentiate to adipocytes following stimulation for 2 days with an induction cocktail containing […] insulin, 1 μM dexamethasone, and 0.5 mM 3-isobutyl-1-methylxanthine in DMEM containing 10% fetal bovine serum (FBS).^44 2 days later, the media is replaced with DMEM with 10% FBS and 1 μg/ml insulin, and after 2 additional days, the media is replaced with DMEM with 10% FBS for 2 additional days, at which point adipogenesis is measured using the AdipoRed Adipogenesis Assay Reagent from Lonza, according to the manufacturer's instructions. In brief, the assay reagent is added to the wells containing cells, where it partitions into the fat droplets of differentiated adipocytes, and emits fluorescence at 572 nm that can be detected with a plate-reader. To test the effect of probe Compound D1, cells were plated into 48-well plates and allowed to grow to confluence. Cells were then treated with 10 μM Compound D1 or 0.025% DMSO, and after 2 days induced to differentiate in the presence of 10 μM Compound D1 or 0.025% DMSO. Fresh compound or DMSO was added during each media replacement.

[6] = Rodent pharmacokinetics (IV, PO, IP); assay type: in vivo, Male C57BL/6 Mice; conditions: mouse
Procedure: The inventors also examined ML400 (also described herein as MLS-0472870 or Compound D1) for its rodent pharmacokinetics. The probe Compound D1 was profiled in Male C57BL/6 Mice, with n=3 for each group studied (IV, IP and PO arms). The formulation used was 1.00 mg/mL in DMSO:Tween80:Water=5:5:90, which gave a clear solution. […] Enterohepatic circulation was also observed for this compound. This compound has acceptable parameters for future in vivo studies (see Table 4 and FIG. 13).

[7] = Hepatic microsomal stability, mouse; assay type: in vitro ADME
Text: The microsomal stability assay is commonly used to rank compounds according to their metabolic stability. This assay addresses the pharmacologic question of how long the parent compound will remain circulating in plasma within the body.

[8] = tested on: insulin receptor in human HepG2 hepatocytes; conditions: HepG2 cells, 10 microM overnight, 1.76 microM insulin 5 min

LMPTP-A (Low Molecular Weight Protein Tyrosine Phosphatase-A) enzyme, sequence (P24666 whole entry): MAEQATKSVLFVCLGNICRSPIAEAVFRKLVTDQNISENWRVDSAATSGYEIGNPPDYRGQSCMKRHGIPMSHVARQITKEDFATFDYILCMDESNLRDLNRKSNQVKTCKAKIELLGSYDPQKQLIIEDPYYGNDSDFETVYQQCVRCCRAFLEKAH

## CNC(=O)c1ccc(-c2cc(NCCCN3CCCCC3)c3ccccc3n2)cc1F [Compound I228]
[1]; read-out: IC50
  IC50: 801 to 5000 nM

## COc1ccc(-c2cc(NCCCN3CCCCC3)c3ccccc3n2)cc1 [Compound D1, 2-(4-methoxyphenyl)-N-(3-(piperidin-1-yl)propyl)quinolin-4-amine]
[2]
  liver function (serum alanine transaminase or aspartate transaminase): does not Affect Liver Function
[3]
  kidney function (serum creatinine): does not Affect Kidney Function
[4]
  glucose tolerance (IPGTT): Improves Glucose Tolerance
[5]; PBS, compared with aqueous buffer
  solubility in PBS: comparable
[5]; pH range of 5.0-7.4
  concentration achieved in aqueous buffer relative to IC50: 18-20 ×IC50
3T3-L1 pre-adipocytes
  3T3-L1 adipogenesis: completely abolished
[6]
  Enterohepatic circulation: observed

## c1ccc(-c2cc(NCCN3CCCCC3)c3ccccc3n2)cc1 [Entry 41]
[7]
  Hepatic Microsome Stability % Remaining @ 1 hr: 0.38%
[8]
  phosphorylation of the insulin receptor: increases phosphorylation of the insulin receptor

## CCN(CC)CCNC(=O)c1ccc(-c2cc(NCCCN3CCCCC3)c3ccccc3n2)cc1 [Compound I254]
[1]; read-out: IC50
  IC50: 200 to 800 nM

## CN(C)Cc1cccc(Nc2cc(-c3ccc(Cl)cc3F)nc3ccccc23)c1 [Compound I9, [(3-{[2-(4-chloro-2-fluorophenyl)(4-quinolyl)]amino}phenyl)methyl]dimethylamine]
[1]; read-out: IC50
  IC50: 801 to 5000 nM

## CSCCCN1CCCCC1 [Entry 64]
[1]; S sample: compound synthesized de novo by SBCCG, read-out: LMPTP (OMFP) (IC50)
  IC50: 66900 nM
